According to patent publication US20060276414A1, “Use of compositions comprising an estrogenic component for the treatment and prevention of musculoskeletal pain” (priority 2003, published 2006):

Tests used:
[1] = system: early breast cancer in postmenopausal women; settings: 9366 patients; cited from earlier work
[2] = system: tumour gene expression profile and musculoskeletal pain in postmenopausal breast cancer patients; experiment: Example 4: placebo-controlled cross-over study with fine needle aspiration, postmenopausal breast cancer patients (at least stage III); format: in vivo, human patients; settings: for average musculoskeletal pain sensation value during treatment weeks, vs placebo: 6 weeks
From the text: 20 postmenopausal patients are recruited that have breast cancer in at least clinical staging […], have a palpable macroscopic tumour mass, show estrogen receptor positive tumour histology, have already been treated with either an anti-estrogen or an aromatase inhibitor for at least three months, do no have contraindications for steroid therapy and suffer from musculoskeletal pain complaints (defined as skeletal pain, pain in the legs, arms or back). Furthermore, during the screening phase other diagnoses, such as rheumatoid arthritis and/or other skeletal diseases or joint diseases, are excluded.
(§1) The patients participate in a clinical study with a duration of 15 weeks and are randomized as follows:
(§2) Patients continue with the anti-estrogen treatment they have been receiving previously during the entire period of the study and receive additional daily oral treatment with 4 mg estetrol or a placebo for six weeks. 5 patients start with 4 mg/day oral estetrol treatment and 5 patients with placebo treatment. After a wash-out period of 3 weeks, during which anti-estrogen treatment continues and no additional estetrol or placebo treatment is given, study treatment is reinitiated. Placebo-receiving patients are subsequently treated with 4 mg/day oral estetrol and estetrol-receiving patients with placebo for 6 weeks after which the study is terminated.
as §2, with “aromatase inhibitor” for “anti-estrogen”
The patients visit the study center once weekly, during which the patients are closely monitored by their study physician. During all visits, thorough physical examinations are performed, blood samples are retrieved and a questionnaire, specifically addressing musculoskeletal pain sensation on a graded scale, is completed. Furthermore, three fine needle aspirations (FNA) from the macroscopic tumour are obtained at baseline, during the wash-out and at the last visit after study week 15, respectively. Additionally at the same time points and for all locations with macroscopic palpable tumour activity, tumour sizes are scored. Tumour gene expression profiles are determined by using a FNA-cDNA microarray as described by Sotiriou et al. (Breast Cancer Research 2002,4:R3). Primary endpoints in the study are changes of the gene expression profile, improvement of the musculoskeletal pain and reduction of climacteric complaints, whereas secondary endpoints are clinical tumour progression and changes of tumour markers.

[3] = system: DMBA-induced mammary tumours; experiment: 7,12-dimethyl-benz(a)anthracene (DMBA)-induced tumour model in rats; format: in vivo, Sprague-Dawley rats
Experimental: In order to assess the effect of the present estrogenic substances on tumours, estetrol was tested in the 7,12-dimethyl-benz(a)anthracene (DMBA)-induced tumour model in rats. This model, originally developed by Huggins et al.,1961 (Nature,19, 204-207), has been widely used and is a generally accepted model with predictive value for anti-tumour agents in humans. The growth of the DMBA-induced tumours is dependent on endogenously produced estradiol or exogenously administered estrogens and prolactin (Sylvester et al., 1982, Cancer Research, 42, 4943-4947).
Eighty-four female Sprague-Dawley rats (Harlan, The Netherlands) were group housed, maintained in a 12-hr light/dark environment, and fed a Soya Free Diet (SDS England) and water ad libitum. Animals were weighed on a weekly basis. One week prior to induction of mammary carcinoma, 12 animals (aged 43 days) were surgically castrated via removal of the ovaries. At the age of 50 days, all animals were administered a single oral dose of 16 mg DMBA to induce tumour development. Animals were subsequently allocated to one of seven groups (n=12), receiving placebo or treatment as follows:. • Group 1 animals received placebo oral treatment with 3.0 ml/kg/day vehicle (20% wt/vol solution of hydroxypropyl-beta-cyclodextrin in water); • Group 2 surgically castrated animals received placebo treatment with 3.0 ml/kg/day vehicle; • Group 3 animals received the anti-estrogen tamoxifen given orally at a single daily dose of 3 mg/kg; • Group 4 animals received ethinylestradiol (EE) orally at a single daily dose of 0.025 mg/kg; • Group S animals received ethinylestradiol (EE) orally at a single daily dose of 0.125 mg/kg; • Group 6 animals received estetrol (E4) orally at a single daily dose of 0.5 mg/kg; and • Group 7 animals received estetrol (E4) orally at a single daily dose of 2.5 mg/kg.
During the treatment period of 8 weeks, the emergence of palpable tumours and number of tumours were determined weekly. At 8 weeks, at necropsy, final measurements were taken. The number of tumours at necropsy are depicted in FIG. 1.

[4] = system: musculoskeletal pain in postmenopausal breast cancer patients; experiment: Example 2: placebo-controlled cross-over study, postmenopausal breast cancer patients (stage I or II) on estrogen suppressant therapy; format: in vivo, human patients; settings: for average musculoskeletal pain sensation value during treatment weeks, vs placebo: 4 mg/day oral estetrol, 6 weeks
From the text: 20 postmenopausal patients are recruited that have breast cancer in clinical staging I or II, are adequately being treated surgically, chemotherapeutically and/or radiotherapeutically, show estrogen receptor positive tumour histology and do no have contraindications for steroid therapy, are on treatment with either an anti-estrogen or an aromatase inhibitor for at least three months and suffer from musculoskeletal pain complaints (defined as skeletal pain, pain in the legs, arms or back). Furthermore, during the screening phase other diagnoses, such as rheumatoid arthritis and/or other skeletal diseases or joint diseases, are excluded.
as §1
as §2, with “anti-estrogen treatment that they have” for “anti-estrogen treatment they have”
Patients continue with the aromatase inhibitor treatment that they have been receiving previously during the entire period of the study and receive additional daily oral treatment with 4 mg estetrol or a placebo for six weeks. 5 patients start with 4 mg/day oral estetrol treatment and 5 patients with placebo treatment. After a wash-out period of 3 weeks, during which aromatase inhibitor treatment continues and no additional estetrol or placebo treatment is given, study treatment is reinitiated. Placebo-receiving patients are subsequently treated with 4 mg/day oral estetrol and estetrol-receiving patients with placebo for 6 weeks after which the study is terminated.
The subjects visit the study center once weekly, during which the patients are closely monitored by their study physician. During all visits, thorough physical examinations are performed, blood samples are retrieved and a questionnaire, specifically addressing musculoskeletal pain sensation on a graded scale and climacteric complaints, is completed. Primary endpoints in the study are improvement of the musculoskeletal pain and reduction of climacteric complaints, whereas secondary endpoints are clinical tumour progression and changes of tumour markers.

[5] = system: bone resorption, hot flushing and vaginal cornification; experiment: agonistic models of in vivo estrogenicity (previous studies); settings: data from previous studies
Experimental: The doses of EE and E4 were based on data from previous studies, showing equipotency of 0.025 mg/kg/day EE and 0.5 mg/kg/day E4 in agonistic models of preventing bone resorption, prevention of hot flushing and vaginal comification.

[6] = system: musculoskeletal pain in premenopausal breast cancer patients; experiment: Example 3: placebo-controlled cross-over study, premenopausal breast cancer patients on estrogen suppressant therapy; format: in vivo, human patients; settings: premenopausal patients with ovarian ablation, estetrol plus estrogen suppressant
[7] = system: DMBA-induced mammary tumours; settings: literature (Hollingsworth et al., 1998); cited from earlier work
[8] = 4 mg/day oral estetrol added to estrogen suppressant therapy

CC(C)(C#N)c1cc(Cn2cncn2)cc(C(C)(C)C#N)c1 [anastrozole]
disease-free survival and incidence of contralateral breast cancer, compared with tamoxifen [1]: significantly superior

C[C@]12CC[C@@H]3c4ccc(O)cc4CC[C@H]3[C@@H]1[C@@H](O)[C@@H](O)[C@@H]2O [estetrol, 1,3,5 (10)-estratrien-3,15α,16α,17β-tetrol]
climacteric complaints (questionnaires) [2, 8]: overall reduction | molecular profile on concomitant administration with an anti-estrogen or an aromatase inhibitor ([2]; 4 mg/day oral estetrol plus anti-estrogen or aromatase inhibitor): synergistically produces a more beneficial molecular profile | average musculoskeletal pain sensation value during treatment weeks, vs placebo ([2]; 4 mg/day oral estetrol, concomitant anti-estrogen therapy): significantly lower | average musculoskeletal pain sensation value during treatment weeks, vs placebo ([2]; 4 mg/day oral estetrol, concomitant aromatase inhibitor therapy): significantly lower | changes in the gene-expression profile involved in regulation and deregulation of breast tissue proliferation ([2]; 4 mg/day oral estetrol, FNA-cDNA microarray): favourable association | tumour progression / sizes of macroscopic tumours ([2]; additional estetrol treatment, vs baseline and progression data for stages III and more): tumours progress more slowly or sizes of macroscopically tumours decline | preventing growth of DMBA-induced tumours, compared with tamoxifen ([3]; E4 2.5 mg/kg/day orally vs tamoxifen 3 mg/kg/day orally): as effective as tamoxifen | mammary tumour development (number of tumours at necropsy) ([3]; E4 2.5 mg/kg/day orally, 8 weeks, DMBA-treated female rats): markedly suppressed mammary tumour development | climacteric complaints (questionnaires) [4, 8]: overall reduction | average musculoskeletal pain sensation value during treatment weeks, vs placebo ([4]; concomitant anti-estrogen therapy): significantly lower | average musculoskeletal pain sensation value during treatment weeks, vs placebo ([4]; concomitant aromatase inhibitor therapy): significantly lower | clinical tumour progression and tumour markers ([4]; during treatment with estetrol, vs baseline and recurrency data for stages I and II): do not show significant adverse changes | equipotency with EE in preventing bone resorption, prevention of hot flushing and vaginal cornification ([5]; 0.5 mg/kg/day E4 vs 0.025 mg/kg/day EE): equipotency | equipotency with EE in in vivo estrogenicity (preventing bone resorption, hot flushing, vaginal cornification) ([5]; 2.5 mg/kg/day E4 vs 0.125 mg/kg/day EE): equipotency | clinical outcome (musculoskeletal pain) compared with postmenopausal patients [6]: similar-to the clinical outcome reported for postmenopausal breast cancer patients

CC/C(=C(\c1ccccc1)c1ccc(OCCN(C)C)cc1)c1ccccc1 [tamoxifen, reference compound]
development of mammary tumours (number of tumours at necropsy) ([3]; tamoxifen 3 mg/kg/day orally, 8 weeks, DMBA-treated female rats): inhibiting the development of mammary tumours | anti-tumour treatment in the DMBA model [7]: effective anti-tumour treatments
